We go through one molecule from patent US20260315398A1, “POLYPEPTIDE DRUG-CONTAINING SUSTAINED-RELEASE MICROSPHERE, PHARMACEUTICAL FORMULATION THEREOF, PREPARATION METHOD THEREFOR, AND USE THEREOF” (HUILLY PHARMA CO., LTD, priority 2023, published 2026).

Data set [1] is described as follows: Effect Simulation of Aggregation Inhibitor, AFM observation of fibrils (FIG. 6). In kind it is physicochemical. As to conditions: aggregation inhibitors sucrose (1) and phenol (2); inhibitor:drug:water 1:3:100, lyophilized, PBS pH 7.4, AFM. As for the experimental part: In this embodiment, simulation experiments of anti-aggregation effects are carried out using liraglutide (Lira) and semaglutide (Sema) as examples, respectively, with specific methods as follows.
A mixture of aggregation inhibitors (aggregation inhibitor 1 is sucrose, and aggregation inhibitor 2 is phenol), a drug substance, and deionized water are mixed at a weight ratio of 1:3:100 and subsequently lyophilized. PBS (pH 7.4) is added dropwise to the lyophilized drug powder to simulate gradual infiltration of the drug inside THE microsphere. Afterwards, a portion of the drug is dissolved in the PBS, and an atomic force microscope (AFM) is used to observe whether fibrils are formed by the drug and to simulate structural changes of the drug during the slow permeation process inside the microsphere.

For data set [2] the following is noted: high-concentration conditions; cited from earlier work.

For `CCCCCCCCCCCCCCCC(=O)N[C@@H](CCC(=O)NCCCC[C@H](NC(=O)[C@H](C)NC(=O)[C@H](C)NC(=O)[C@H](CCC(N)=O)NC(=O)CNC(=O)[C@H](CCC(=O)O)NC(=O)[C@H](CC(C)C)NC(=O)[C@H](Cc1ccc(O)cc1)NC(=O)[C@H](CO)NC(=O)[C@H](CO)NC(=O)[C@@H](NC(=O)[C@H](CC(=O)O)NC(=O)[C@H](CO)NC(=O)[C@@H](NC(=O)[C@H](Cc1ccccc1)NC(=O)[C@@H](NC(=O)CNC(=O)[C@H](CCC(=O)O)NC(=O)[C@H](C)NC(=O)[C@@H](N)Cc1cnc[nH]1)[C@@H](C)O)[C@@H](C)O)C(C)C)C(=O)N[C@@H](CCC(=O)O)C(=O)N[C@@H](Cc1ccccc1)C(=O)N[C@H](C(=O)N[C@@H](C)C(=O)N[C@@H](Cc1c[nH]c2ccccc12)C(=O)N[C@@H](CC(C)C)C(=O)N[C@H](C(=O)N[C@@H](CCCNC(=N)N)C(=O)NCC(=O)N[C@@H](CCCNC(=N)N)C(=O)NCC(=O)O)C(C)C)[C@@H](C)CC)C(=O)O` [liraglutide], in data set [1], the “inhibition of fibrillation by aggregation inhibitor” value is “significantly inhibit fibrillation”. Besides, in data set [2], the “aggregation and drug polymer fiber formation” value is “prone to aggregation and even form drug polymer fibers”.
